From US20140005103A1, “SULFONAMIDE DERIVATIVES AND METHODS OF USE THEREOF FOR IMPROVING THE PHARMACOKINETICS OF A DRUG” (Merck, Sharp & Dohme Corp., priority 2012, published 2014)

Legend:
CYP2C19 = target: T1, CYP2C19 (Homo sapiens, UniProt P33261); test: Cocktail CYP assay, mephenytoin 4'-hydroxylation; format: in vitro ADME; conditions: human liver microsomes, 30 μM mephenytoin; test concentrations up to 10 μM
T1 construct: 0.1 mg/mL protein human liver microsomes (BD Gentest); tissue BD Gentest; host or cells: human liver microsomes
T1 sequence (P33261 whole entry): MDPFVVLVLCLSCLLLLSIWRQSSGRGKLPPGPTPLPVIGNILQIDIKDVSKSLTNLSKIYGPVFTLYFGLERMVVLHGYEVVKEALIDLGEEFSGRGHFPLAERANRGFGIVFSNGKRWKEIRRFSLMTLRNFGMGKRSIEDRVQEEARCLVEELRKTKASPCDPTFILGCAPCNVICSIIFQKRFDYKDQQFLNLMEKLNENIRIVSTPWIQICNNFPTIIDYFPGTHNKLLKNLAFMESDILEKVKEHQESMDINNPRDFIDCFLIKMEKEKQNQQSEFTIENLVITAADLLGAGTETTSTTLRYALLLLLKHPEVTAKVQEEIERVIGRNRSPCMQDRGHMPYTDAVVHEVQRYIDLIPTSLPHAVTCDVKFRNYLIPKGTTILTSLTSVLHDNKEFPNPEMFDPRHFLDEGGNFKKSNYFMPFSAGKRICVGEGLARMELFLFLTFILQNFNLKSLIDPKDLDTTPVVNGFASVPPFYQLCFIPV
Method: (§1) Determination of IC50 in a Cocktail Assay for CYPs 1A2, 2C9, 2C19, 2D6 and 3A4
(§2) This assay was performed in a standard 96-well plate design. IC50 values were calculated from the percent inhibition observed for each test compound at 6 concentrations (for example, 0.0032, 0.016, 0.08, 0.4, 2 and 10 μM). The incubation substrate mix contains 10 μM phenacetin (1A2), 5 μM diclofenac (2C9), 30 μM mephenyloin (2C19), 5 μM dextromethorphan (2D6) and 2 μM midazolam (3A4), 0.1 mg/mL protein human liver microsomes (BD Gentest), 1 mM NAPDH, 3.3 mM MgCl2 and 100 mM potassium phosphate buffer (pH 7.4). The production of the metabolite of each probe substrate was determined after incubation for 10 min at 37° C. Quantitation of the metabolite peak area ratio against an internal standard (tolbutamide) was determined by LC/MS/MS analysis following acetonitrile treatment of the incubations.
(§3) Samples were analyzed in the MRM mode with a SCIEX API-4000 mass spectrometer (Applied Biosystems, Foster City, Calif.), with a Shimadzu LC-20 AD pump (Shimadzu corporation, Kyoto, JP) and a CTC PAL autosampler (Agilent Technologies, Switzerland). A Phenomenex, Luna, 5 nm, 100 A, 2.00×30 mm HPLC column was used for the separation. The mobile phases were: (A) 0.1% formic acid in water and (B) 0.1% formic acid in acetonitrile. The binary gradient was as follows.
(§4) The peak area ratio of the analyte to the internal standard was used to quantify the metabolite. The values of peak area ratios in the presence of test compound were compared to those of maximum or minimum controls and were expressed as % inhibition by interpolating between the maximum and minimum peak area ratios. Incubations with no inhibitor were defined as the maxima.
(§5) The following equation was used to calculate the % inhibition:
(§6) [1−[(X−Low control)/(High control−Low control)]]*100
(§7) For the IC50 calculation, SigmaPlot was used to plot the mean % inhibition versus the test compound concentrations and for non-linear regression analysis of the data. Depending on the range of data points defining the inhibition curve, the data may have been fit to the 4-parameter logistic equation.

CYP1A2 = target: T2, CYP1A2 (Homo sapiens, UniProt P05177); test: Cocktail CYP assay, phenacetin O-deethylation; format: in vitro ADME; conditions: human liver microsomes, 10 μM phenacetin; test concentrations up to 10 μM
T2 construct: 0.1 mg/mL protein human liver microsomes (BD Gentest); tissue BD Gentest; host or cells: human liver microsomes
T2 sequence (P05177 1-516): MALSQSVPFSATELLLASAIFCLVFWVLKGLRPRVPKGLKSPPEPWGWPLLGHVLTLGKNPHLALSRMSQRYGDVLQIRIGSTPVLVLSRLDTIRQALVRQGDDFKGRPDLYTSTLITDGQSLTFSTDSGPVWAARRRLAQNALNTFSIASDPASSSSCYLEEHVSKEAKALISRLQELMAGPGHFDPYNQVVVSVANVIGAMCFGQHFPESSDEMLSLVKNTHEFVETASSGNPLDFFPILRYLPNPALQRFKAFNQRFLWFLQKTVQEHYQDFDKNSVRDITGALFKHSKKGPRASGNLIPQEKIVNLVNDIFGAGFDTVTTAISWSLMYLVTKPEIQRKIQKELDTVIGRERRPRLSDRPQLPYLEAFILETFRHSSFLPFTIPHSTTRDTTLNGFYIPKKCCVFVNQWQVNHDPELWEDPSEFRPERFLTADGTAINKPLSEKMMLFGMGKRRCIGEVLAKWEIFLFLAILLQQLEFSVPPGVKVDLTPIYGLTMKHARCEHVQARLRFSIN
Method: as §1, §2, §3, §4, §5, §6, §7

CYP2D6 = target: T3, CYP2D6 (Homo sapiens, UniProt P10635); test: Cocktail CYP assay, dextromethorphan O-demethylation; format: in vitro ADME; conditions: human liver microsomes, 5 μM dextromethorphan; test concentrations up to 10 μM
T3 construct: 0.1 mg/mL protein human liver microsomes (BD Gentest); tissue BD Gentest; host or cells: human liver microsomes
T3 sequence (P10635 whole entry): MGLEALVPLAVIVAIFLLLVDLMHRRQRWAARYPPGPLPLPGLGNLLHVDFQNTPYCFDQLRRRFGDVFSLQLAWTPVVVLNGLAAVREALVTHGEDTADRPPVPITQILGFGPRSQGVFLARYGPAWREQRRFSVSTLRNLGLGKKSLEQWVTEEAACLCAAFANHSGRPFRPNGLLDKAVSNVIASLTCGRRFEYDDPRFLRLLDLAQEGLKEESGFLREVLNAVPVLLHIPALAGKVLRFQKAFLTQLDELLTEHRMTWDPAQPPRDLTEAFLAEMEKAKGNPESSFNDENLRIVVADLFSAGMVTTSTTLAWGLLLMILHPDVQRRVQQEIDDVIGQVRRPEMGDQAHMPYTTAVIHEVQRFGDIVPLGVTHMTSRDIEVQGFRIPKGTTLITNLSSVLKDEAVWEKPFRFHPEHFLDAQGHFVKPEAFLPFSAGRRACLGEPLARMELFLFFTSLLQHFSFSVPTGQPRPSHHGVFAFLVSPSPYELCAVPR
Method: as §1, §2, §3, §4, §5, §6, §7

CYP2C9 = target: T4, CYP2C9 (Homo sapiens, UniProt P11712); test: Cocktail CYP assay, diclofenac 4'-hydroxylation; format: in vitro ADME; conditions: human liver microsomes, 5 μM diclofenac; test concentrations up to 10 μM
T4 construct: 0.1 mg/mL protein human liver microsomes (BD Gentest); tissue BD Gentest; host or cells: human liver microsomes
T4 sequence (P11712 whole entry): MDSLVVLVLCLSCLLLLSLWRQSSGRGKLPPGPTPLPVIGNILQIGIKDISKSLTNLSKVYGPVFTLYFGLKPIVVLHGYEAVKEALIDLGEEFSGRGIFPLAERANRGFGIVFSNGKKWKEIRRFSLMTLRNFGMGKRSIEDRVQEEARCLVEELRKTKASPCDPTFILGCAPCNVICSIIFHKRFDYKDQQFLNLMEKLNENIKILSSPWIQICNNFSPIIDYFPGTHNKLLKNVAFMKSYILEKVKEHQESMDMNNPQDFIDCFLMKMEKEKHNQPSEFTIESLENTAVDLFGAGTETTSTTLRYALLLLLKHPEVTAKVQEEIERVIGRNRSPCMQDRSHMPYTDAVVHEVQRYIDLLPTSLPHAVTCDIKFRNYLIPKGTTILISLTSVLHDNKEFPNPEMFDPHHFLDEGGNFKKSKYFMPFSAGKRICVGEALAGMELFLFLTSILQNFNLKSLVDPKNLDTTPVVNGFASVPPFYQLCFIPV
Method: as §1, §2, §3, §4, §5, §6, §7

human CYP11B1 = target: T5, human CYP11B1 (Homo sapiens, UniProt P15538); test: IC50 vs CYP11B1 by cortisol synthesis in V79 cells; format: cell-based; conditions: V79 cells expressing human CYP11B1, 1500 nM RSS, cortisol HTRF; test concentrations 0.5-10000 nM
T5 construct: expressed in transfected cells
T5 sequence (P15538 25-503): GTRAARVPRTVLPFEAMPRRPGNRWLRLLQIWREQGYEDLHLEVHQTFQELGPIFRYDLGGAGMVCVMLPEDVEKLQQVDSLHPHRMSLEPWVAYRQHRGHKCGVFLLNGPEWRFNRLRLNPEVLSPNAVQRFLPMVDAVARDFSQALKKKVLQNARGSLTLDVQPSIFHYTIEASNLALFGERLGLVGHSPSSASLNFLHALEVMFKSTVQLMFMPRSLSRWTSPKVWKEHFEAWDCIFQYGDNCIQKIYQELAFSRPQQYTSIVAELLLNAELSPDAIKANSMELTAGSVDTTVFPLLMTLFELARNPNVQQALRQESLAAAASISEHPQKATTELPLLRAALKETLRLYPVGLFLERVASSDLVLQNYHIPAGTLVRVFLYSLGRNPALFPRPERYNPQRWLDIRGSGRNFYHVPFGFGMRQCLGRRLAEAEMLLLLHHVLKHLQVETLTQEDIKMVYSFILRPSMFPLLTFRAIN
Method: (§8) Determination of IC50 vs CYP11B1/CYP11B2 by Measurement of Cortisol/Aldosterone Synthesis
(§9) This assay was performed in a standard 384-well plate design using cultured V79 cells stably expressing human CYP11B1 or human CYP11B2. Test compounds at 10 concentrations (for example, 10000, 3333.3, 1111.1, 370.4, 123.5, 41.2, 13.7, 4.6, 1.5 and 0.5 nM) were added in 384-well plate after the cell-seeding procedure. The incubation substrate contains 1500 nM RSS for CYP11B1 assay/750 nM DOC for CYP11B2 assay. The
(§10) Cortisol/Aldosterone production of cell culture supernatant was determined by Cortisol/Aldosterone HTRF kit after for about 15 hours incubation at RT (protect from light). IC50 values were calculated from the percent inhibition observed for each test compound at 10 concentrations.
(§11) The assay plate was read using Envision (Perkin Elmer, Waltham, Mass.) at 665 nm and 590 nm (using Filter Barcode of 217#, 205#; Mirror Barcode of 446#).
(§12) Data are analyzed using Assay Data Analyzer. All ratio data (665 nm/590 nm) are back calculated according to the standard curve, resulting in Cortisol/Aldosterone concentrations. IC50 values are reported as the Inflection Point (IP) of a four parameter fit of the titration data.
as §5
(§13) % Activity=100×{1−(Sample_back calculated Cortisol/Aldosterone concentration−LC_back calculated Cortisol/Aldosterone concentration)/(HC_back calculated Cortisol/Aldosterone concentration−LC_back calculated Cortisol/Aldosterone concentration)}

human CYP11B2 = target: T6, human CYP11B2 (Homo sapiens, UniProt P19099); test: IC50 vs CYP11B2 by aldosterone synthesis in V79 cells; format: cell-based; conditions: V79 cells expressing human CYP11B2, 750 nM DOC, aldosterone HTRF; test concentrations 0.5-10000 nM
T6 construct: expressed in transfected cells
T6 sequence (P19099 25-503): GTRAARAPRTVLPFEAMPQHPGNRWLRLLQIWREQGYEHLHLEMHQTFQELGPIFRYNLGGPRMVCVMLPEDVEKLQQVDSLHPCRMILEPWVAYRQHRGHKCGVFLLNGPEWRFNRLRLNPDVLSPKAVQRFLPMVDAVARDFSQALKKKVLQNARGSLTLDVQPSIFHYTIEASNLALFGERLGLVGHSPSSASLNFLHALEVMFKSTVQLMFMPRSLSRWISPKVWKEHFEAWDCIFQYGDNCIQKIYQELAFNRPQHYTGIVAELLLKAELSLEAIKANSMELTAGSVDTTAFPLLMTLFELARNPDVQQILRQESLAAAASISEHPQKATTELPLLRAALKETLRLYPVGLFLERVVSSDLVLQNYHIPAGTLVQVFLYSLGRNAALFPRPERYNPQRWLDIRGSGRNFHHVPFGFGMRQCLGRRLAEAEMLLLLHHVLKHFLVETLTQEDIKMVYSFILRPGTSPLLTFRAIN
Method: as §8, §9, §10, §11, §12, §5, §13

CYP3A4 = CYP3A4 (Homo sapiens, UniProt P08684); test: IC50 vs CYP3A by inhibition of lopinavir metabolism in human liver microsomes; format: biochemical; conditions: pH 7.4, human liver microsomes, 1.5 μM lopinavir, 8 min at 37° C., test concentrations 0.098-100 nM, read-out: 3A4(LPV)
Sequence of CYP3A4 (P08684 2-503): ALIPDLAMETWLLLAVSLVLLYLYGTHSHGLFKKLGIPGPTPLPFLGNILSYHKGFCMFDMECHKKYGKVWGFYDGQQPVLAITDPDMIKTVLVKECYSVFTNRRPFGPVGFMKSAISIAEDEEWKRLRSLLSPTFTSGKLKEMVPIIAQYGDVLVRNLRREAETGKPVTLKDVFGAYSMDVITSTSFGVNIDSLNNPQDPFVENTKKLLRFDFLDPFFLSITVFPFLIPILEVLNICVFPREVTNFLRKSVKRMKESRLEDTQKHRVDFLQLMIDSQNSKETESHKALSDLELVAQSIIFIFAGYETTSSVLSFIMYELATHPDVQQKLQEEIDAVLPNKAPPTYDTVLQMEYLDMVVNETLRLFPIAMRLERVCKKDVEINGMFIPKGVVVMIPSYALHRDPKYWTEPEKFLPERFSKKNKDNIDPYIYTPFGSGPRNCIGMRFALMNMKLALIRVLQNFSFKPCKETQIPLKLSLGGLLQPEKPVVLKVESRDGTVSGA
Method: Determination of IC50 vs CYP3A by Measurement of Inhibition of Lopinavir Metabolism
This assay was performed in a standard 96-well plate design. IC50 values were calculated from the percent inhibition observed for each test compound at 6 concentrations (for example, 0.098, 0.391, 1.56, 6.25, 25 and 100 nM). The incubation substrate mix contains 1.5 μM lopinavir, 0.01 mg/mL protein human liver microsomes (BD Gentest), 1 mM NAPDH, 3.3 mM MgCl2 and 100 mM potassium phosphate buffer (pH 7.4). The production of the sum of three hydroxylated metabolites (M2: 6-hydroxy lopinavir, M3: 4-hydroxy lopinavir, M4: 4-hydroxy lopinavir (epimer of M3), Kumar et al., 1999) was determined after incubation for 8 min at 37° C. Quantitation of the metabolite peak area ratio against an internal standard (tolbutamide) was determined by LC/MS/MS analysis following acetonitrile treatment of the incubations.
as §3, with “μm,” for “nm,”
as §4, with “maxima and with 5 μM ketoconazole were defined as the minima” for “maxima.”
as §5, §6, §7

Row | Structure (SMILES) | IC50 (CYP2C19) [µM] | IC50 (CYP1A2) [µM] | IC50 (CYP2D6) [µM] | IC50 (CYP2C9) [µM] | IC50 (human CYP11B1) [µM] | IC50 (human CYP11B2) [µM] | IC50 at 8 min (CYP3A4) [µM]
1 | C[C@H](c1ccc(F)cc1)n1cncc1CN1CCN(S(=O)(=O)c2cnc(N3CC[C@@H](N)[C@H](F)C3)s2)CC1 [Compound 12] | > 10 | > 10 | 2.85 | 1.75 | 1.46 | 1.69 | –
2 | C[C@H](c1ccc(F)cc1)n1cncc1CN1CCN(S(=O)(=O)c2cnc(N3CC[C@@H]4OCCN[C@H]4C3)s2)CC1 [Compound 14] | > 10 | > 10 | – | 9.76 | 1.05 | – | –
3 | C[C@H](c1ccc(F)cc1)n1cncc1CC1(CO)CCN(S(=O)(=O)c2cnc(N3CCN(C)CC3)s2)CC1 [Compound 47] | > 10 | > 10 | 5.84 | > 10 | – | – | 0.013
4 | C[C@H](c1ccc(F)cc1)n1cncc1C1CN(C)CC2CN(S(=O)(=O)c3cnc(Nc4ccccn4)s3)CCN21 (stereo partly drawn) [Compound 41] | 4.95 | > 10 | 2.3 | 2.26 | – | – | 0.0021
5 | C[C@H](c1ccc(F)cc1)n1cncc1CC1CCN(S(=O)(=O)c2cnc(N3CCN(C)CC3)s2)CC1 [Compound 44] | 8.39 | > 10 | 2.41 | 3.57 | – | – | 0.0011
6 | C[C@H](c1ccc(F)cc1)n1cncc1CC1(C#N)CCN(S(=O)(=O)c2cnc(N3CCN(C)CC3)s2)CC1 [Compound 48] | 8.06 | > 10 | 2.85 | > 10 | – | – | 0.0094
7 | C[C@H](c1ccc(F)cc1)n1cncc1CN1CCN(S(=O)(=O)c2cnc(N3CC[C@@H]4OCCN[C@H]4C3)s2)CC1 [Compound 13] | > 10 | > 10 | – | 7.41 | 1.56 | – | 0.0014
8 | C[C@H](c1ccc(F)cc1)n1cncc1CN1CCN(S(=O)(=O)c2cnc(N3CCC(S(C)(=O)=O)C3)s2)CC1 (stereo partly drawn) [Compound 7] | > 10 | > 10 | > 10 | 3.39 | 4.09 | – | –

The next lines start with the values.

Row | IC50 (CYP2C19) [µM] | IC50 (CYP1A2) [µM] | IC50 (CYP2D6) [µM] | IC50 (CYP2C9) [µM] | IC50 (human CYP11B1) [µM] | IC50 (human CYP11B2) [µM] | IC50 at 8 min (CYP3A4) [µM] | Structure (SMILES)
9 | 4.49 | > 10 | 7.85 | 1.45 | – | – | – | COC(c1cncn1[C@H](C)c1ccc(F)cc1)C1CCN(S(=O)(=O)c2cnc(Nc3ccc(C(F)(F)F)cn3)s2)CC1 (single isomer, unassigned) [Compound 45b]
10 | 1.13 | > 10 | 5.68 | 0.336 | – | – | < 0.00098 | COC(c1cncn1[C@H](C)c1ccc(F)cc1)C1CCN(S(=O)(=O)c2cnc(Nc3ccc(C(F)(F)F)cn3)s2)CC1 (single isomer, unassigned) [Compound 45a]
11 | > 10 | > 10 | 2.9 | > 10 | – | – | – | C[C@H](c1ccc(F)cc1)n1cncc1C1CC12CCN(S(=O)(=O)c1cnc(N3CCN(C)CC3)s1)CC2 (single isomer, unassigned) [Compound 43a]
12 | 9.2 | > 10 | 3.6 | > 10 | – | – | – | C[C@H](c1ccc(F)cc1)n1cncc1C1CC12CCN(S(=O)(=O)c1cnc(N3CCN(C)CC3)s1)CC2 (single isomer, unassigned) [Compound 43b]
